Results: the supplement of paper PMC11061612

Key:
Olaparib = compound: O=C(c1cc(Cc2n[nH]c(=O)c3ccccc23)ccc1F)N1CCN(C(=O)C2CC2)CC1 [Olaparib]; conditions: max 10 µM
How it was run: (§1)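 Following 24 hours at 37°C and 5% CO2, cancer cell lines in 1536-well plates with 7.5 μl DMEM/F12 or RPMI and 10% FBS were dosed for 72 hours, final DMSO typically being 0.2%. CellTiter-Glo 2.0 luminescence, scaled between blank-well and DMSO-well means, gave the viability readout. Dose responses were fitted to a two-parameter logistic curve with a non-linear mixed effects model, and the single-agent IC50 was derived from this fit.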

AZD5153 = compound: COc1nnc2ccc(N3CCC(c4ccc(OCCN5CCN(C)C(=O)[C@H]5C)cc4)CC3)nn12 [AZD5153]; conditions: max 1 µM
How it was run: as §1

Doxorubicin = compound: COc1cccc2c1C(=O)c1c(O)c3c(c(O)c1C2=O)C[C@@](O)(C(=O)CO)C[C@@H]3O[C@H]1C[C@H](N)[C@H](O)[C@H](C)O1 [Doxorubicin]; conditions: max 1 µM
How it was run: as §1

AZD0156 = compound: CN(C)CCCOc1ccc(-c2ccc3ncc4c(c3c2)n(C2CCOCC2)c(=O)n4C)cn1 [AZD0156]; conditions: max 3 µM
How it was run: as §1

Selumetinib = compound: Cn1cnc2c(F)c(Nc3ccc(Br)cc3Cl)c(C(=O)NOCCO)cc21 [Selumetinib]; conditions: max 10 µM
How it was run: as §1

SN-38 = compound: CCc1c2c(nc3ccc(O)cc13)-c1cc3c(c(=O)n1C2)COC(=O)[C@]3(O)CC [SN-38]; conditions: max 0.3 µM
How it was run: as §1

SG3199 = compound: CC1=CN2[C@@H](C1)C=NC3=CC(=C(C=C3C2=O)OC)OCCCCCOC4=C(C=C5C(=C4)N=C[C@@H]6CC(=CN6C5=O)C)OC [SG3199]; conditions: max 0.001 µM
How it was run: as §1

Crizotinib = compound: C[C@@H](Oc1cc(-c2cnn(C3CCNCC3)c2)cnc1N)c1c(Cl)ccc(F)c1Cl [Crizotinib]; conditions: max 10 µM
How it was run: as §1

AZD6738 = compound: C[C@@H]1COCCN1C2=NC(=NC(=C2)C3(CC3)[S@](=N)(=O)C)C4=C5C=CNC5=NC=C4 [AZD6738]; conditions: max 10 µM
How it was run: as §1

AZD2811 = compound: CCN(CCO)CCCOc1ccc2c(Nc3cc(CC(=O)Nc4cccc(F)c4)[nH]n3)ncnc2c1 [AZD2811]; conditions: max 1 µM
How it was run: as §1

AZD7648 = compound: Cc1cc2ncnn2cc1Nc1ncc2c(n1)n(C1CCOCC1)c(=O)n2C [AZD7648]; conditions: max 10 µM
How it was run: as §1

AZD1390 = compound: CC(C)n1c(=O)n(C)c2cnc3cc(F)c(-c4ccc(OCCCN5CCCCC5)nc4)cc3c21 [AZD1390]; conditions: max 0.3 µM
How it was run: as §1

Taselisib = compound: Cc1nc(-c2cn3c(n2)-c2ccc(-c4cnn(C(C)(C)C(N)=O)c4)cc2OCC3)n(C(C)C)n1 [Taselisib]; conditions: max 10 µM
How it was run: as §1

Capivasertib = compound: C1CN(CCC1(C(=O)N[C@@H](CCO)C2=CC=C(C=C2)Cl)N)C3=NC=NC4=C3C=CN4 [Capivasertib]; conditions: max 10 µM
How it was run: as §1

AZD8186 = compound: C[C@@H](Nc1cc(F)cc(F)c1)c1cc(C(=O)N(C)C)cc2c(=O)cc(N3CCOCC3)oc12 [AZD8186]; conditions: max 3 µM
How it was run: as §1

AZD4320 = compound: CN(CC[C@H](CSC1=CC=CC=C1)NC2=C(C=C(C=C2)S(=O)(=O)NC(=O)C3=CC=C(C=C3)N4CCC(CC4)[C@H](C5=CC=CC=C5C6=CC=C(C=C6)Cl)O)S(=O)(=O)C(F)(F)F)CCO [AZD4320]; conditions: max 1 µM
How it was run: as §1

Venetoclax = compound: CC1(C)CCC(CN2CCN(c3ccc(C(=O)NS(=O)(=O)c4ccc(NCC5CCOCC5)c([N+](=O)[O-])c4)c(Oc4cnc5[nH]ccc5c4)c3)CC2)=C(c2ccc(Cl)cc2)C1 [Venetoclax]; conditions: max 1 µM
How it was run: as §1

AZD5991 = compound: Cc1c2c(nn1C)CSCc1cc(n(C)n1)CSc1cc(c3ccccc3c1)OCCCc1c(C(=O)O)n(C)c3c-2c(Cl)ccc13 [AZD5991]; conditions: max 1 µM
How it was run: as §1

Lapatinib = compound: CS(=O)(=O)CCNCc1ccc(-c2ccc3ncnc(Nc4ccc(OCc5cccc(F)c5)c(Cl)c4)c3c2)o1 [Lapatinib]; conditions: max 10 µM
How it was run: as §1

Trametinib = compound: CC(=O)Nc1cccc(-n2c(=O)n(C3CC3)c(=O)c3c(Nc4ccc(I)cc4F)n(C)c(=O)c(C)c32)c1 [Trametinib]; conditions: max 1 µM
How it was run: as §1

Alisertib = compound: COc1cc(Nc2ncc3c(n2)-c2ccc(Cl)cc2C(c2c(F)cccc2OC)=NC3)ccc1C(=O)O [Alisertib]; conditions: max 10 µM
How it was run: as §1

Gefitinib = compound: COc1cc2ncnc(Nc3ccc(F)c(Cl)c3)c2cc1OCCCN1CCOCC1 [Gefitinib]; conditions: max 10 µM
How it was run: as §1

Savolitinib = compound: C[C@@H](c1ccc2nccn2c1)n1nnc2ncc(-c3cnn(C)c3)nc21 [Savolitinib]; conditions: max 1 µM
How it was run: as §1

Palbociclib = compound: CC(=O)c1c(C)c2cnc(Nc3ccc(N4CCNCC4)cn3)nc2n(C2CCCC2)c1=O [Palbociclib]; conditions: max 10 µM
How it was run: as §1

Dasatinib = compound: CC1=C(C(=CC=C1)Cl)NC(=O)C2=CN=C(S2)NC3=CC(=NC(=N3)C)N4CCN(CC4)CCO [Dasatinib]; conditions: max 2 µM
How it was run: as §1

Prexasertib = compound: COc1cccc(OCCCN)c1-c1cc(Nc2cnc(C#N)cn2)n[nH]1 [Prexasertib]; conditions: max 1 µM
How it was run: as §1

AZD1775 = compound: C=CCn1c(=O)c2cnc(Nc3ccc(N4CCN(C)CC4)cc3)nc2n1-c1cccc(C(C)(C)O)n1 [AZD1775]; conditions: max 3 µM
How it was run: as §1

Cell Line	IC50, cell viability 72 h (Olaparib)	IC50, cell viability 72 h (AZD5153)	IC50, cell viability 72 h (Doxorubicin)	IC50, cell viability 72 h (AZD0156)	IC50, cell viability 72 h (Selumetinib)	IC50, cell viability 72 h (SN-38)	IC50, cell viability 72 h (SG3199)	IC50, cell viability 72 h (Crizotinib)	IC50, cell viability 72 h (AZD6738)	IC50, cell viability 72 h (AZD2811)	IC50, cell viability 72 h (AZD7648)	IC50, cell viability 72 h (AZD1390)	IC50, cell viability 72 h (Taselisib)	IC50, cell viability 72 h (Capivasertib)	IC50, cell viability 72 h (AZD8186)	IC50, cell viability 72 h (AZD4320)	IC50, cell viability 72 h (Venetoclax)	IC50, cell viability 72 h (AZD5991)	IC50, cell viability 72 h (Lapatinib)	IC50, cell viability 72 h (Trametinib)	IC50, cell viability 72 h (Alisertib)	IC50, cell viability 72 h (Gefitinib)	IC50, cell viability 72 h (Savolitinib)	IC50, cell viability 72 h (Palbociclib)	IC50, cell viability 72 h (Dasatinib)	IC50, cell viability 72 h (Prexasertib)	IC50, cell viability 72 h (AZD1775)
8-MG-BA (Glioblastoma)	> 10000 nM	136 nM	393 nM	> 3000 nM	> 10000 nM	15.4 nM	> 1 nM	8800 nM	2240 nM	> 1000 nM	> 10000 nM	> 300 nM	3730 nM	> 10000 nM	> 3000 nM	> 1000 nM	> 1000 nM	676 nM	8810 nM	> 1000 nM	> 10000 nM	> 10000 nM	> 1000 nM	> 10000 nM	255 nM	21.1 nM	430 nM
A3-KAW (B-Cell Non-Hodgkin's Lymphoma)	8450 nM	11.1 nM	86.3 nM	1350 nM	> 10000 nM	3.18 nM	> 1 nM	3980 nM	355 nM	887 nM	> 10000 nM	> 300 nM	> 10000 nM	> 10000 nM	> 3000 nM	> 1000 nM	> 1000 nM	21.7 nM	> 10000 nM	997 nM	68.6 nM	> 10000 nM	> 1000 nM	1300 nM	> 2000 nM	7.37 nM	117 nM
A498 (Kidney Carcinoma)	> 10000 nM	> 1000 nM	> 1000 nM	> 3000 nM	> 10000 nM	> 300 nM	> 1 nM	> 10000 nM	> 10000 nM	> 1000 nM	> 10000 nM	> 300 nM	9450 nM	4660 nM	425 nM	> 1000 nM	> 1000 nM	> 1000 nM	> 10000 nM	> 1000 nM	> 10000 nM	> 10000 nM	> 1000 nM	> 10000 nM	> 2000 nM	201 nM	1690 nM
A549 (Lung Adenocarcinoma)	> 10000 nM	95.2 nM	309 nM	> 3000 nM	1050 nM	70 nM	> 1 nM	6620 nM	6070 nM	777 nM	> 10000 nM	> 300 nM	1720 nM	6930 nM	> 3000 nM	> 1000 nM	> 1000 nM	> 1000 nM	2750 nM	29.7 nM	2340 nM	> 10000 nM	> 1000 nM	8160 nM	170 nM	> 1000 nM	2460 nM
